Laboratory results reported in US12630547B2, “RAS protein degraders, pharmaceutical compositions thereof, and their therapeutic applications” (BioTheryX, Inc., priority 2019, dated 2026).

Experiments:
Assay type in all cases: cell-based
[1] = tested on: H23 cells; experiment: Cell viability assay (CELLTITER-GLO), H23 cells; conditions: Table 4; 3 days
How it was run: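 Luminescent CellTiter-Glo readout after 3-day compound treatment (37° C, 5% CO2) of H23 cells plated at 4,000 cells/well in RPMI 1640 plus 10% FBS, DMSO as control. IC50 values given as categorical ranges.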

[2] = tested on: MOLM-13 cells; experiment: Cell viability assay (CELLTITER-GLO), MOLM-13 cells; conditions: Homo sapiens, MOLM-13, 72 h; Table 2; compound at 10 μM, 3 days; read-out: Effect on MOLM-13 cell viability (% DMSO)
How it was run: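 Viability, as % of DMSO control, was read by CellTiter-Glo luminescence after a 3-day compound exposure (single dose of 10 μM or 1 μM) at 37 °C. Cells plated at 4,000/well in RPMI 1640 with 10% FBS. Results reported as categories A <10%, B 10–<25%, C 25–<50%, D ≥50%.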

[3] = tested on: H358 cells; experiment: Cell viability assay (CELLTITER-GLO), H358 cells; conditions: Table 4; 3 days
How it was run: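 Luminescent ATP read-out (CellTiter-Glo) after 3-day incubation at 37 °C of H358 cells plated at 4,000/well in RPMI 1640 with 10% FBS. Values are either IC50 bins (A ≤1 μM through D >10 μM) or % of DMSO viability at 10 μM or 1 μM, bins A <10% through D ≥50%.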

| SMILES | Inhibition of H23 cells, IC50 (class) [1] | viability at 10 µM [2] [%] | Inhibition of H358 cells, IC50 (class) [3] |
| --- | --- | --- | --- |
| C=CC(=O)N1C[C@@H]2C(=O)N(CCCCCCCN3CCC(c4cc(F)cc5c4CN(C4CCC(=O)NC4=O)C5=O)CC3)c3cnc4c(F)c(-c5c(O)cccc5F)c(Cl)cc4c3N2C[C@H]1C (stereo partly drawn) [Compound 66, 3-(4-(1-(7-((2R,4aR)-3-Acryloyl-11-chloro-9-fluoro-10-(2-fluoro-6-hydroxyphenyl)-2-methyl-5-oxo-1,2,3,4,4a,5-hexahydro-6H-pyrazino[1′,2′:4,5]pyrazino[2,3-c]quinolin-6-yl)heptyl)piperidin-4-yl)-6-fluoro-1-oxoisoindolin-2-yl)piperidine-2,6-dione] | B′ | < 10 | A′ |
| CCC(=O)N1C[C@@H]2C(=O)N(CCCCCCCN3CCC(c4cc(F)cc5c4CN(C4CCC(=O)NC4=O)C5=O)CC3)c3cnc4c(F)c(-c5c(O)cccc5F)c(Cl)cc4c3N2C[C@H]1C (stereo partly drawn) [Compound 67, 3-(4-(1-(7-((2R,4aR)-11-Chloro-9-fluoro-10-(2-fluoro-6-hydroxyphenyl)-2-methyl-5-oxo-3-propionyl-1,2,3,4,4a,5-hexahydro-6H-pyrazino[11′,2′:4,5]pyrazino[2,3-c]quinolin-6-yl)heptyl)piperidin-4-yl)-6-fluoro-1-oxoisoindolin-2-yl)piperidine-2,6-dione] | B′ | < 10 | B′ |
| C=CC(=O)N1CCN(c2ncnc3c(F)c(-c4c(F)cccc4OCCCCCCCN4CCC(c5scc6c5CN(C5CCC(=O)NC5=O)C6=O)CC4)c(Cl)cc23)CC1 (stereo not drawn) [Compound 70, 3-(1-(1-(7-(2-(4-(4-Acryloylpiperazin-1-yl)-6-chloro-8-fluoroquinazolin-7-yl)-3-fluorophenoxy)heptyl)piperidin-4-yl)-4-oxo-4H-thieno[3,4-c]pyrrol-5(6H)-yl)piperidine-2,6-dione] | B′ | < 10 | A′ |
| CCC(=O)N1CCN(c2ncnc3c(F)c(-c4c(F)cccc4OCCCCCCCN4CCC(c5scc6c5CN(C5CCC(=O)NC5=O)C6=O)CC4)c(Cl)cc23)CC1 (stereo not drawn) [Compound 71, 3-(1-(1-(7-(2-(6-chloro-8-fluoro-4-(4-propionylpiperazin-1-yl)quinazolin-7-yl)-3-fluorophenoxy)heptyl)piperidin-4-yl)-4-oxo-4H-thieno[3,4-c]pyrrol-5(6H)-yl)piperidine-2,6-dione] | B′ | < 10 | B′ |
| C=CC(=O)N1CCN(c2nc(=O)n(-c3ccccc3C(C)C)c3nc(-c4c(F)cccc4OCCCCCCCN4CCC(c5cc(F)cc6c5CN(C5CCC(=O)NC5=O)C6=O)CC4)c(F)cc23)[C@@H](C)C1 (stereo partly drawn) [Compound 72, 3-(4-(1-(7-(2-(4-((S)-4-Acryloyl-2-methylpiperazin-1-yl)-6-fluoro-1-(2-isopropylphenyl)-2-oxo-1,2-dihydropyrido[2,3-d]pyrimidin-7-yl)-3-fluorophenoxy)heptyl)piperidin-4-yl)-6-fluoro-1-oxoisoindolin-2-yl)piperidine-2,6-dione] | B′ | < 10 | A′ |
| CCC(=O)N1CCN(c2nc(=O)n(-c3ccccc3C(C)C)c3nc(-c4c(F)cccc4OCCCCCCCN4CCC(c5cc(F)cc6c5CN(C5CCC(=O)NC5=O)C6=O)CC4)c(F)cc23)[C@@H](C)C1 (stereo partly drawn) [Compound 73, 3-(6-Fluoro-4-(1-(7-(3-fluoro-2-(6-fluoro-1-(2-isopropylphenyl)-4-((S)-2-methyl-4-propionylpiperazin-1-yl)-2-oxo-1,2-dihydropyrido[2,3-d]pyrimidin-7-yl)phenoxy)heptyl)piperidin-4-yl)-1-oxoisoindolin-2-yl)piperidine-2,6-dione] | B′ | 10 to 25 | B′ |
